A short description of series [1]: Toxicity in OVX-induced bone loss C57BL/6 mouse model assessed as effect on serum AST level at 10 mg/kg, po QD for 4 weeks. The class given is organism-based. The following applies: in vivo, 672 h, dose 10 mg/kg/day.
Series [2] is described as follows: Toxicity in OVX-induced bone loss C57BL/6 mouse model assessed as effect on serum GLU level at 10 mg/kg, po QD for 4 weeks. Type of series: organism-based. The following applies: in vivo, 672 h, dose 10 mg/kg/day.
Series [3] deals with RAW264.7. Kind of series: Effect on NFkappaB p65 expression in RANKL-stimulated mouse RAW264.7 cells at 1 to 10 uM preincubated for 4 hrs followed by RANKL stimulation for 10 mins and measured by Western blot analysis. The conditions noted are these: dose 1-10 µM, time 250.0 min. The class given is functional. A general note: In western blotting, separated proteins are transferred to a membrane and probed.

The test system of series [4] is BMMC. Kind of series: Anti-osteoporosis activity in C57BL/6 mouse BMM cells assessed as inhibition of M-CSF/RANKL-induced osteoclastogenesis by measuring reduction in multinucleated TRAP+ cells incubated for 5 days with media replenishment for every 48 hrs measured by TRAP-staining based analysis. Type of series: functional, cell-based. The conditions noted are these: C57BL/6, BMMC.

Series [5] in a line: Toxicity in OVX-induced bone loss C57BL/6 mouse model assessed as effect on serum TG level at 10 mg/kg, po QD for 4 weeks. Type of series: organism-based. The following applies: in vivo, 672 h, dose 10 mg/kg/day.
For series [6], the system named is BMMC. As to the kind of experiment: Cytotoxicity against C57BL/6 mouse BMM cells assessed as reduction in cell viability at 30 uM measured after 48 hrs in presence of M-CSF by CCK8 assay. The class given is cell-based. In general terms: Tetrazolium dyes change colour on reduction, which living cells bring about.
For series [7], the system named is Mus musculus. Kind of series: Antiosteoporotic activity against OVX-induced bone loss C57BL/6 mouse model assessed as restoration of E2 level in serum at 10 mg/kg, po QD for 4 weeks. The class given is functional, organism-based. The conditions noted are these: dose 10.0 mg/kg/day.
Series [8] deals with RAW264.7. Kind of series: Inhibition of RANKL-induced ERK phosphorylation in mouse RAW264.7 cells at 1 to 10 uM pretreated for 4 hrs prior to RANKL stimulation for 20 mins by western blot analysis. The class given is cell-based. The following applies: dose 1-10 µM, time 260.0 min.
Series [9] has as its system Mus musculus. Kind of series: Antiosteoporotic activity against OVX-induced bone loss C57BL/6 mouse model assessed as decrease in osteocalcin secretion in serum at 10 mg/kg, po QD for 4 weeks. Type of series: functional, organism-based. The conditions noted are these: dose 10.0 mg/kg/day.
Series [10] has as its system BMMC. Kind of series: Downregulation of osteoclastogenesis-associated gene expression in C57BL/6 mouse BMM cells assessed as inhibition of M-CSF/RANKL-induced MMP9 expression at 5 uM after 5 days by qRT-PCR analysis. The class given is functional, cell-based. The conditions noted are these: time 5.0 day. For orientation: Real-time PCR tracks product formation cycle by cycle.

Series [11] concerns the target c-Jun N-terminal kinase (Mus musculus) (UniProt Q91Y86+Q9WTU6+Q61831). As to the kind of experiment: Inhibition of RANKL-induced JNK phosphorylation in mouse RAW264.7 cells at 1 to 10 uM pretreated for 4 hrs prior to RANKL stimulation for 20 mins by western blot analysis. Type of series: cell-based. The conditions noted are these: dose 1-10 µM, time 260.0 min.

pIC50: −log10 of the molar value. The source made the active and inactive calls. The rule behind the calls is not given here.

What is called pIC50 is −log10 of the IC50, conventionally taken in molar units.

Chain of c-Jun N-terminal kinase (Mus musculus) (Q61831 whole entry, looked up): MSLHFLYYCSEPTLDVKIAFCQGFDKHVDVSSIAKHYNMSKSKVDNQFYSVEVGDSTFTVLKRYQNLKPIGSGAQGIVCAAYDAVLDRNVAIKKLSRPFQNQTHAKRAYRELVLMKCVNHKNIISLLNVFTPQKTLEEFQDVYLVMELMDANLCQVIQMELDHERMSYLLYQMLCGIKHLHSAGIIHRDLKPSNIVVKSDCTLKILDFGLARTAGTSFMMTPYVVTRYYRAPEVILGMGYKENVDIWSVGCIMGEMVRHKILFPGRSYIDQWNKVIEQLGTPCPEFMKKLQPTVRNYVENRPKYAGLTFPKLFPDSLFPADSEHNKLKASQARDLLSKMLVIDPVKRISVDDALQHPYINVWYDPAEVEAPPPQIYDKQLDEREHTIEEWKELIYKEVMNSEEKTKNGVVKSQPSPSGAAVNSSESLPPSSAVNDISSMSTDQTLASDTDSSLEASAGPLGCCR
Chain of c-Jun N-terminal kinase (Mus musculus) (Q91Y86 whole entry, looked up): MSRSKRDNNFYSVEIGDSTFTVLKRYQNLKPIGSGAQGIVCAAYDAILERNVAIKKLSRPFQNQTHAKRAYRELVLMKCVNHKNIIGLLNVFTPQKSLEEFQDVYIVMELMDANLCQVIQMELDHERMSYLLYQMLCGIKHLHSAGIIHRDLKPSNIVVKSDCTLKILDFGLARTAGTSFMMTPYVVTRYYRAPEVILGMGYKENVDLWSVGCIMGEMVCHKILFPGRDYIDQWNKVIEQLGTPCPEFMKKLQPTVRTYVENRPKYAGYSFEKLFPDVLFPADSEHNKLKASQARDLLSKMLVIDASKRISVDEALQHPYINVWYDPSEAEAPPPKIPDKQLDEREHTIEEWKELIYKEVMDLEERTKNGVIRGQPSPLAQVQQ
Chain of c-Jun N-terminal kinase (Mus musculus) (Q9WTU6 whole entry, looked up): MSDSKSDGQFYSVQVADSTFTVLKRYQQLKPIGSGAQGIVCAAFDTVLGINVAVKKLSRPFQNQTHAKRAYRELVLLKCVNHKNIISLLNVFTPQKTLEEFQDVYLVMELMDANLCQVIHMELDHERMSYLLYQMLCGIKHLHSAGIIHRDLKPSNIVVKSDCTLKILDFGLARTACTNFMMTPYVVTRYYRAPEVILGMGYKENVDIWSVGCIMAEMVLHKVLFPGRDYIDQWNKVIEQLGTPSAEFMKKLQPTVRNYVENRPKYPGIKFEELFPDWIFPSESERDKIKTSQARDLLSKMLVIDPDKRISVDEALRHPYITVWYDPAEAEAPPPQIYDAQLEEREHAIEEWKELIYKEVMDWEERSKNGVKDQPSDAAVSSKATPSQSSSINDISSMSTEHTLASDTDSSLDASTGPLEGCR

In the case of `C=C1CC[C@@H]2[C@](C)(CNCc3ccc(F)cc3)[C@H](O)CC[C@@]2(C)[C@@H]1/C=C/C1=CCOC1=O`, the Activity entry (in [1]; in [2]; in [5]; with BMMC [6]) was “Non-Toxic” each time. Besides, the result in the series with RAW264.7 [3] was inactive. The pIC50 in the series on BMMC [4] is 6.46. For the same compound, the result in the series on Mus musculus [7] and in the series with Mus musculus [9] was Active. For the same compound, the inhibition entry (in the series with RAW264.7 [8]; in series [11]) was “inactive” throughout. Moreover, in the series with BMMC [10], the inhibition result is “Active”.

Values taken from ChEMBL document CHEMBL4819024, “Synthesis and evaluation of andrographolide derivatives as potent anti-osteoporosis agents in vitro and in vivo” (Eur J Med Chem, 2021).
